{"source": "patent US11472772B2", "about": "“S1P3 antagonists” (Teva Pharmaceutical Industries, Ltd., priority 2013, dated 2022)", "assay_type_in_all_cases": "in vivo, rat", "key": {"[1]": {"test_system": "quisqualic acid lesioned rats", "experiment": "Object Recognition Test (ORT) on quisqualic acid lesioned rats", "settings": "exploration time of familiar vs novel object", "method": "QUIS-treated animals can also undergo the Object Recognition Test (ORT, measuring episodic memory) or other behavioural tests to measure the improvement of cognitive functions upon treatment with a compound of the invention.\n(§1) Three-month old male Wistar rats (Harlan, Milan, Italy) weighing 230-250 g were used. The rats were housed in macrolon cages with ad lib food and water and maintained on a 12 h light/dark cycle at 23° C. room temperature (RT). All experiments were carried out according to the guidelines of the European Community's Council for Animal Experiments (86/609/EEC). Efforts were made to minimize the number of animals used and their suffering. […]\nObject recognition was evaluated according to Ennanceur and Delacour (1988) and Scali et al., (1997). […] The times spent exploring the familiar (F) and the new object (N) were recorded separately and the difference between the two exploration times was taken. […]"}, "[2]": {"test_system": "quisqualic acid lesioned rats", "experiment": "Quisqualic acid (QUIS) injection in Nucleus Basalis Magnocellularis of rats: immunohistochemistry for neurodegeneration and neuroinflammation (ChAT, GFAP, OX42)", "text": "(§2) The efficacy of the compounds of the invention on neurodegeneration and neuroinflammation can be evaluated with two different methodological approaches aimed to reproduce some pathological features of Alzheimer's disease: • 1) the excitotoxic insult (quisqualic acid—QUIS) in the Nucleus Basalis Magnocellularis (NBM), characterized by severe neurodegeneration of cholinergic neurons along with significant neuroinflammation. • 2) the β-amyloid peptide 25-35 (Aβ25-35) injection in NBM of rats, inducing a significant glia reaction around Aβ25-35 deposits with modest toxicity on cholinergic neurons. • Readouts are based on immunochemical analysis and are: count of cholinergic neurons (ChAT-positive), astrocytes (GFAP-positive) and microglia (OX-42 or Iba-1 positive). The analysis is performed by two different approaches, the visual scoring (blind) and the digital platform APERIO®.\nThree-month old male Wistar rats (Harlan, Milan, Italy) weighing 230-250 g were used. The rats were housed in macrolon cages with ad lib food and water and maintained on a 12 h light/dark cycle at 23° C. room temperature (RT). All experiments were carried out according to the guidelines of the European Community's Council for Animal Experiments (86/609/EEC). Efforts were made to minimize the number of animals used and their suffering.\nThe quisqualic acid (Sigma Chemical Co., Milan, Italy; dissolved in phosphate buffer at the concentration of 0.12 M volume 0.5 μl) or 10 ug of ABeta(25-35) peptide (Bachem) dissolved PBS at the concentration of 10 μg/μl and aggregate at 37° for 2 h before injection volume 1 μl) was injected by means of an Hamilton microsyringe into the right NBM under chloral hydrate anaesthesia at the following stereotaxic coordinates: AP=−0.2, L=−2.8 from bregma and H=7 from the dura (Paxinos and Watson, 1982, Casamenti et al., 1998). Controlateral NBM were injected with PBS solution. The study was performed for 7 days after surgery. […]"}, "[3]": {"test_system": "Abeta(25-35) lesioned rats", "experiment": "Abeta(25-35) peptide injection in NBM of rats: GFAP staining", "settings": "30 mg/kg, Kruskall-Wallis", "text": "as §2, §1"}}, "data": [{"smiles": "CCCC(C(=O)Nc1cnc(Br)cn1)c1cncc(Br)c1", "note": "(stereo not drawn) [Example 33, 2-(5-Bromo-pyridin-3-yl)-pentanoic acid (5-bromo-pyrazin-2-yl)-amide]", "values": [{"measurement": "Cognitive functions in ORT (episodic memory)", "setting": "[1]", "result": "improved cognitive functions"}, {"measurement": "Cognitive functions in ORT (episodic memory)", "setting": "[1]; listed as example 33", "result": "significantly ameliorates cognitive functions"}, {"measurement": "Neuroprotective effect, rat NBM ChAT-positive neuron counts (APERIO)", "setting": "[2]; 30 and 60 mg/Kg/day p.o., QUIS lesioned rats", "result": "strong neuroprotective effects"}, {"measurement": "Anti-neuroinflammatory effect on astrocytes, GFAP reactivity", "setting": "[2]; 30 and 60 mg/Kg/day, QUIS lesioned rats", "result": "strong activity on GFAP reactivity"}, {"measurement": "Anti-neuroinflammatory and neuroprotective activity in the in vivo assays (FIGS. 1-3)", "setting": "[2]; doses ranging 10 to 60 mg/kg", "result": "anti-neuroinflammatory and neuroprotective activity"}, {"measurement": "GFAP-positive cells, quantitative analysis by visual scoring", "setting": "[3]", "result": "p<0.05 vs vehicle group"}]}]}
